Holding throughout (experiment): Test A pre-/postemergence herbicide test
The test system of assay [1] is barnyardgrass. The assay is classed as in vivo, Echinochloa crus-galli. The source says:
(§1) Seeds of plant species selected from barnyardgrass (Echinochloa crus-galli (L.) Beauv.), downy bromegrass (Bromus tectorum L.), large crabgrass (Digitaria sanguinalis (L.) Scop.), giant foxtail (Setaria faberi Herrm.), morningglory (Ipomoea spp.), redroot pigweed (Amaranthus retroflexus L.) and velvetleaf (Abutilon theophrasti Medik.) were planted into a sandy loam soil and treated preemergence with a directed soil spray using test chemicals formulated in a non-phytotoxic solvent mixture which included a surfactant. At the same time plants selected from these species were also treated postemergence by spraying to runoff with test chemicals formulated.
(§2) Plants ranged in height from 2 to 10 cm and were in the one- to two-leaf stage for the postemergence treatment. Treated plants and untreated controls were maintained in a greenhouse for approximately ten days, after which time all treated plants were compared to untreated controls and visually evaluated for injury. Plant response ratings, summarized in Table A, are based on a 0 to 100 scale where 0 is no effect and 100 is complete control. A dash (-) response means no test results.

Assay [2] relates to large crabgrass. The assay is classed as in vivo, Digitaria sanguinalis.
Source text: as §1, §2

Assay [3] deals with giant foxtail. The assay is classed as in vivo, Setaria faberi.
Source text: as §1, §2

For assay [4], the system named is morningglory. It counts as in vivo, Ipomoea spp.
Source text: as §1, §2

Assay [5] deals with redroot pigweed. It counts as in vivo, Amaranthus retroflexus.
Source text: as §1, §2

Assay [6] relates to velvetleaf. It counts as in vivo, Abutilon theophrasti.
Source text: as §1, §2

The mark [7] stands for this setting: Postemergence, 125 g ai/ha, 0 to 100 scale, 0 no effect, 100 complete control.
Setting [8] is: Postemergence, 500 g ai/ha, 0 to 100 scale, 0 no effect, 100 complete control.
[9] abbreviates: preemergence, 125 g ai/ha, visual injury, 0 to 100 scale (0 no effect, 100 complete control).
[10] abbreviates: preemergence, 500 g ai/ha, visual injury, 0 to 100 scale (0 no effect, 100 complete control).
Setting [11] is: Postemergence, 2000 g ai/ha, 0 to 100 scale, 0 no effect, 100 complete control.
The mark [12] stands for this setting: Preemergence, 2000 g ai/ha, visual rating, 0 to 100 scale (0 no effect, 100 complete control).
The mark [13] stands for this setting: Preemergence, 500 g ai/ha, visual rating, 0 to 100 scale (0 no effect, 100 complete control).

Turning to `CCOC(=O)c1ccc(F)c(NC(=O)c2nc(C(C)(C)C)nn2CC)c1` [Compound 451], the “Barnyardgrass plant response rating” value in assay [1] (setting [7]) came to 10; in assay [1] (setting [8]), 20; in assay [1] (setting [9]) it was 15; in assay [1] (setting [10]) it was 55. The “Crabgrass, Large plant response rating” value stood at 10 in assay [2] (setting [7]), 30 in assay [2] (setting [8]), 5 in assay [2] (setting [9]) and 25 in assay [2] (setting [10]). The “Foxtail, Giant plant response rating” value in assay [3] (setting [7]) was 10; in assay [3] (setting [8]) it was 20; in assay [3] (setting [9]), 5; in assay [3] (setting [10]), 45. Besides, the “Morningglory plant response rating” value in assay [4] (setting [7]) amounted to 20; in assay [4] (setting [8]), 20; in assay [4] (setting [9]), 0; in assay [4] (setting [10]), 5. For the same compound, the “Pigweed plant response rating” value in assay [5] (setting [7]) came out at 10; in assay [5] (setting [8]) it was 50; in assay [5] (setting [9]), 0; in assay [5] (setting [10]), 0. The “Velvetleaf plant response rating” value in assay [6] (setting [7]) is given as 20; in assay [6] (setting [8]), 30; in assay [6] (setting [9]), 0; in assay [6] (setting [10]) it was 20.
In the case of `CCNC(=O)c1cccc(NC(=O)c2cn(CC)nc2C(F)(F)F)c1` [Compound 172], the “Barnyardgrass plant response rating” value in assay [1] (setting [8]), in assay [1] (setting [12]) and in assay [1] (setting [10]) was 0 throughout. Besides, in assay [1] (setting [11]), the “Plant response rating, Barnyardgrass” value is listed as 0. The “Crabgrass, Large plant response rating” value in assay [2] (setting [8]), in assay [2] (setting [12]) and in assay [2] (setting [10]) was 0 throughout. Moreover, the “Plant response rating, Crabgrass, Large” value in assay [2] (setting [11]) was 0. Further, the “Foxtail, Giant plant response rating” value in assay [3] (setting [8]), in assay [3] (setting [12]) and in assay [3] (setting [10]) was 0 in each case. Moreover, in assay [3] (setting [11]), the “Plant response rating, Foxtail, Giant” value came to 0. In addition, the “Morningglory plant response rating” value in assay [4] (setting [8]) was found to be 10; in assay [4] (setting [12]), 0; in assay [4] (setting [10]), 0. In addition, the “Plant response rating, Morningglory” value in assay [4] (setting [11]) was determined as 10. Also, the “Pigweed plant response rating” value in assay [5] (setting [8]) stood at 25; in assay [5] (setting [12]), 40; in assay [5] (setting [10]) it was 0. The “Plant response rating, Pigweed” value in assay [5] (setting [11]) is listed as 60. The “Velvetleaf plant response rating” value came to 5 in assay [6] (setting [8]), 0 in assay [6] (setting [12]) and 0 in assay [6] (setting [10]). For the same compound, the “Plant response rating, Velvetleaf” value in assay [6] (setting [11]) came out at 15.
As for `CCNC(=O)c1ccnc(NC(=O)c2cn(C(C)(C)C)nc2CC)c1` [Compound 452], the “Barnyardgrass plant response rating” value in assay [1] (setting [7]) was determined as 10; in assay [1] (setting [8]), 35; in assay [1] (setting [9]), 15; in assay [1] (setting [10]), 70. Further, the “Crabgrass, Large plant response rating” value is 10 in assay [2] (setting [7]), 20 in assay [2] (setting [8]), 20 in assay [2] (setting [9]) and 45 in assay [2] (setting [10]). Further, the “Foxtail, Giant plant response rating” value is reported as 10 in assay [3] (setting [7]), 25 in assay [3] (setting [8]), 5 in assay [3] (setting [9]) and 45 in assay [3] (setting [10]). Moreover, the “Morningglory plant response rating” value in assay [4] (setting [7]) was 20; in assay [4] (setting [8]), 30; in assay [4] (setting [9]) it was 0; in assay [4] (setting [10]), 10. Further, the “Pigweed plant response rating” value in assay [5] (setting [7]) came out at 20; in assay [5] (setting [8]) it was 70; in assay [5] (setting [9]), 10; in assay [5] (setting [10]), 65. Further, the “Velvetleaf plant response rating” value turned out to be 20 in assay [6] (setting [7]), 30 in assay [6] (setting [8]), 0 in assay [6] (setting [9]) and 5 in assay [6] (setting [10]).
For the compound `Cn1nc(C(C)(C)C)cc1C(=O)Nc1cccc2c1CCCC2=NO` [Compound 116], the “Barnyardgrass plant response rating” value worked out at 0 in assay [1] (setting [8]), 35 in assay [1] (setting [13]) and 70 in assay [1] (setting [12]). Besides, the “Plant response rating, Barnyardgrass” value in assay [1] (setting [11]) is 25. Also, the “Crabgrass, Large plant response rating” value in assay [2] (setting [8]) is given as 0; in assay [2] (setting [13]), 45; in assay [2] (setting [12]), 80. The “Plant response rating, Crabgrass, Large” value in assay [2] (setting [11]) was 10. For the same compound, the “Foxtail, Giant plant response rating” value worked out at 0 in assay [3] (setting [8]), 20 in assay [3] (setting [13]) and 35 in assay [3] (setting [12]). Besides, the “Plant response rating, Foxtail, Giant” value in assay [3] (setting [11]) came out at 0. The results for the “Morningglory plant response rating” value in assay [4] (setting [8]), in assay [4] (setting [13]) and in assay [4] (setting [12]) were 0, 0 and 10, respectively. The “Plant response rating, Morningglory” value in assay [4] (setting [11]) turned out to be 0. Also, the “Pigweed plant response rating” value in assay [5] (setting [8]), in assay [5] (setting [13]) and in assay [5] (setting [12]) was 0 throughout. The “Plant response rating, Pigweed” value in assay [5] (setting [11]) is reported as 0. Moreover, the “Velvetleaf plant response rating” value in assay [6] (setting [8]), in assay [6] (setting [13]) and in assay [6] (setting [12]) was 0 throughout. Also, in assay [6] (setting [11]), the “Plant response rating, Velvetleaf” value was 0.
